Measurements: ChEMBL document CHEMBL5729782, “6-heteroaryloxy benzimidazoles and azabenzimidazoles as JAK2 inhibitors” (2023)
Values joined by “and” are separate entries in the source; they are usually repeats but may differ in a detail not shown here. Equal values may be shown once.

Assay: Streptavidin-coated magnetic beads were treated with biotinylated small molecule ligands for 30 minutes at room temperature to generate affinity resins for kinase assays. The liganded beads were blocked with excess biotin and washed with blocking buffer (SeaBlock (Pierce), 1% BSA, 0.05% Tween 20, 1 mmol/L DTT) to remove unbound ligand and to reduce nonspecific phage binding. Binding reactions were assembled by combining kinases, liganded affinity beads, and test compounds in 1× binding buffer (1×PBS, 0.05% Tween 20, 0.1% BSA, 1 mmol/L DTT). Test compound was prepared as 111× stocks in 100% DMSO and directly diluted into the assay wells. All reactions were performed in polypropylene 384-well plates in a final volume of 0.02 mL. The assay plates were incubated at room temperature with shaking for 1 hour and the affinity beads were washed with wash buffer (1×PBS, 0.05% Tween 20). The beads were then re-suspended in elution buffer (1×PBS, 0.05% Tween 20, 0.5 μmol/L non-biotinylated affinity ligand) and incubated at room temperature with shaking for 30 minutes. The kinase concentration in the eluate was measured by qPCR.

SMILES	Kd
CC(=O)Nc1cc(Oc2cnc3nc(Nc4cc(C(C)(C)C)n([C@H]5CCC[C@@H]5O)n4)n(C)c3c2)ccn1	in the range around 30 nM
CC(=O)Nc1cc(Oc2cnc3nc(Nc4cc(C5CC5)cn(C)c4=O)n(C)c3c2Cl)ccn1	in the range around 30 nM
COc1c(Oc2ccnc(NC(=O)C3CC3)c2)cnc2nc(Nc3cc(C(C)(C)C)n(C[C@H](C)O)n3)n(C)c12	< 10 nM
CC(=O)Nc1ccc(Oc2cnc3c(c2)nc(Nc2cc(C(C)(C)C)n([C@H]4CCOC4)n2)n3C)cn1	< 10 nM
CCCCO[C@H]1C[C@@H](n2nc(Nc3nc4ccc(Oc5ccnc(NC(C)=O)c5)cc4n3C)cc2C(C)(C)C)C1	< 10 nM
CC(=O)Nc1cc(Oc2ccc3nc(Nc4cc(C(F)(F)F)cn(C[C@@H]5COCCO5)c4=O)n(C)c3c2)ccn1	in the range around 525 nM
CNC(=O)c1cc(Oc2ccc3nc(Nc4cc(C(C)(C)C)nn4C)n(C)c3c2)ccn1	in the range around 525 nM
COc1c(Oc2ccnc(NC(=O)C3CC3)c2)cnc2nc(Cc3cc(C4CC4)cn(C)c3=O)n(C)c12	< 10 nM
COCCN1CC[C@@H](n2nc(NC3Nc4ncc(Oc5ccnc(NC(=O)C6CC6)c5)c(Cl)c4N3C)cc2C(C)(C)C)C1 (some centres not stated)	< 10 nM
COc1c(Oc2ccnc(NC(=O)C3CC3)c2)cnc2nc(Nc3cc(C(C)(C)C)n(C[C@@H](C)O)n3)n(C)c12	< 10 nM
CO[C@H]1CCC1Cn1cc(C2CC2)cc(Nc2nc3ccc(Oc4ccnc(NC(C)=O)c4)cc3n2C)c1=O (some centres not stated)	< 10 nM
CC(=O)Nc1cc(Oc2cnc3nc(NC4=CC(C(F)(F)F)=CC(C)C4=O)n(C)c3c2Cl)ccn1 (configuration not stated)	< 10 nM
CC(=O)Nc1cc(Oc2cnc3nc(Nc4cc(C(C)C)n(CCF)n4)n(C)c3c2)ccn1	< 10 nM
COc1c(Oc2ccnc(NC(C)=O)c2)cnc2nc(Nc3nc([C@H]4CCOC4)c(C(C)(C)C)s3)n(C)c12	< 10 nM
CC(=O)Nc1cc(Oc2cnc3nc(Nc4cc(C(C)C)n(CCC#N)n4)n(C)c3c2C)ccn1	< 10 nM
COc1c(Oc2ccnc(NC(C)=O)c2)cnc2nc(Nc3nc([C@@H]4CCOC4)c(C(C)(C)C)s3)n(C)c12	< 10 nM
CO[C@H]1CCOC[C@@H]1n1cc(C(F)(F)F)cc(Nc2nc3ccc(Oc4ccnc(NC(C)=O)c4)cc3n2C)c1=O	< 10 nM
CNc1cc(Oc2ccnc(NC(C)=O)c2)cnc1NC(=S)Nc1cc2n(n1)CCCC2(C)C	< 10 nM
CC(=O)Nc1cc(Oc2cnc3nc(Nc4cc(C(C)C)n(CC(F)F)n4)n(C)c3c2)ccn1	< 10 nM
CC(C)(C)OC(=O)N1CC2(CC(n3nc(C(F)(F)F)cc3N)C2)C1	< 10 nM
CC(=O)Nc1cc(Oc2cnc3nc(Nc4cc5n(n4)CCCC5(C)C)n(C)c3c2Cl)ccn1	< 10 nM
CC(=O)Nc1cc(Oc2ccc3nc(Nc4cc(C5CC5)cn(CC5CC[C@@H]5O)c4=O)n(C)c3c2)ccn1 (some centres not stated)	< 10 nM
COc1ccc(Cn2cc(Cc3ccc(Nc4nc5ccc(Oc6ccnc(NC(C)=O)c6)cc5n4C)cc3C(F)(F)F)cn2)cc1	in the range around 525 nM
CC(=O)Nc1cc(Oc2cnc3nc(Nc4cc(C(C)(C)C)n(C[C@H]5CCN(C)CC5(F)F)n4)n(C)c3c2)ccn1	in the range around 3000 nM
COc1c(Oc2ccnc(NC(C)=O)c2)cnc2nc(Nc3cc(C(C)(C)C)n(-c4ccn(CC(F)F)c4)n3)n(C)c12	< 10 nM
CC(=O)Nc1cc(Oc2ccc3nc(Nc4cc(C5CC5)cn(C5CCC5O)c4=O)n(C)c3c2)ccn1 (configuration not stated)	< 10 nM (3×) and in the range around 30 nM
CNc1cc(Oc2ccnc(NC(C)=O)c2)cnc1NC(=S)Nc1cc(C2CC2)cn(C)c1=O	< 10 nM
